Experimental findings from patent US20160039936A1, “FIBROBLAST GROWTH FACTOR RECEPTOR INHIBITION FOR THE TREATMENT OF DISEASE” (UNIVERSITY OF MIAMI, priority 2011, published 2016) are described below.

In test [1] the test system is isolated NRVM. The experiment in a line: Cross-sectional area (hypertrophy) of isolated NRVM with receptor antagonists (Example 4). In kind it is cell-based, rat. Particulars: for cross-sectional area of isolated NRVM: 48 h, FGF alone 25 ng/ml vs PBS. The protocol: NRVM were isolated using a standard isolation system (Worthington Biochemical Corporation) (Faul et al., 2011). Hearts from 1-2 day old Sprague Dawley rats were harvested, minced in calcium-and magnesium-free Hank's Balanced Salt Solution (HBSS), and the tissue digested with 50 μg/ml trypsin at 4° C. for 20-24 hours. Soybean trypsin inhibitor in HBSS was added, and the tissue was further digested with collagenase (in Leibovitz L-15 medium) under slow rotation (15 rpm) at 37° C. for 45 minutes. Cells were released by triturating the suspension 20 times with a standard 10 ml plastic serological pipette and filtering it twice through a cell strainer (70 μm, BD Falcon). Cells were incubated at room temperature for 20 minutes and spun at 100 g for 5 minutes. The cell pellet was resuspended in plating medium [Dulbecco's Modified Eagle Medium (DMEM; Cellgro) with 17% Media 199 (Invitrogen), 15% fetal bovine serum (FBS; Invitrogen) and 1% penicillin/streptomycin solution (P/S; Invitrogen)]. Cells were counted using a hemocytometer.
Cells were plated on glass and plastic surfaces, which were coated with laminin (Invitrogen; 10 μg/ml in PBS) at room temperature for 1 hour prior to plating. For immunofluorescence analysis, 3×10^5 cells were seeded per well on glass coverslips in 24-well plates. For Western blot or qPCR analyses of total extracts, 1×10^6 cells were seeded per well in 6-well plates, and for immunoprecipitation assays, 5×10^6 cells were seeded in 10 cm-culture dishes. Cells were left undisturbed in plating medium at 37° C. for 72 hours and then cultured in maintenance medium (DMEM with 20% Media 199, 1% insulin-transferrin-sodium selenite solution [ITS; Sigma-Aldrich] and 1% P/S) in the presence of 100 μM 5-bromo-2′-deoxyuridine (BrdU; Sigam-Aldrich). After 4 days, isolated cardiac myocytes were cultured in BrdU-containing maintenance medium in the presence of recombinant murine FGF23 or FGF2 (both at 25 ng/ml) for different time points.
Cultured cells were fixed in 2% PFA (in 5 mg/ml sucrose) for 5 minutes and permeabilized in 1% Triton X-100 (in PBS) for 10 minutes. We analyzed hypertrophic growth of isolated NRVM and NMVM on laminin-coated glass coverslips after 48 hours of treatment with growth factors. For FGFR4 expression and localization analyses, untreated NMVM from wild-type and FGFR4^−/− mice were immunolabeled. The mouse monoclonal antibody against sarcomeric α-actinin (EA-53; Sigma-Aldrich) was used at 1:1,000, and rabbit polyclonal anti-FGFR4 (C-16; Santa Cruz) at 1:50. Cy3-conjugated goat-anti mouse and Alexa488-conjugated goat-anti rabbit (Jackson Immuno Research) were used as secondary antibodies at 1:300. To visualize nuclei, fixed cells were incubated with 4′,6-diamidino-2-phenylindole (DAPI; 400 ng/ml in PBS) for 10 minutes. Immunofluorescence images were taken on a Leica TCS-SP5 confocal microscope with a 63× oil objective.
Myocyte cross-sectional area was measured based on α-actinin-positive staining using Leica AF6000 fluorescence software. To assess the signaling pathways involved in FGF23- and FGF2-mediated hypertrophy, we analyzed the morphometry of plated cells that were pre-treated with specific inhibitors for 60 minutes prior to the addition of the FGFs at 25 ng/ml (NRVMs) or at 100 ng/ml (NMVMs). The following inhibitors and concentrations were used: pan-FGFR, PD173074 (Sigma-Aldrich) at 10 nM; FGFR1-3, AZD4547 (ChemieTek) at 5 nM; and FGFR4 blocking antibody (human monoclonal, U3-11; U3Pharma) at 10 μg/ml.

The subject of test [2] is isolated NRVM. Briefly: Quantitative PCR of ANP and BNP in NRVM. In kind it is cell-based, rat. Conditions: for expression of ANP and BNP: 48 h, FGF alone, qPCR. The protocol:
Total RNA was purified from isolated NRVMs using Trizol (G Biosciences) according to the manufacturer's protocol, and reverse transcribed using Qscript (Quanta Biosciences). Gene expression was quantified by real-time PCR on a Biorad CFX 96 real-time Detection System using 200 ng of cDNA, PerfeCTA SYBR Green FastMix ROX (Quanta Biosciences). RNA from total mouse and rat hearts was extracted using the PureLink RNA Mini Kit (Ambion by Life Technologies) and Trizol (Life Technologies). 2 μg total RNA was reverse-transcribed using First Stand cDNA Synthesis Kit for RT-PCR (AMV) (Roche Diagnostics). Quantitative PCR reactions were carried out in the StepOne plus Real-Time PCR System (Applied Biosystems) using FAST SYBR Green Master Mix (Applied Biosystems). Raw data were quantified via StepOne™ software v2.3 from life Technologies. Relative gene expression was normalized to expression levels of 18S rRNA (for NRVM), and GAPDH or beta actin (mouse and rat tissue), and evaluated using the 2^−ΔΔCt method.
(In general: Real-time PCR tracks product formation cycle by cycle.)

With `CCN(CC)CCCCNc1ncc2cc(-c3cc(OC)cc(OC)c3)c(NC(=O)NC(C)(C)C)nc2n1` [PD173074], the “FGF2-induced hypertrophy (cross-sectional area) with receptor antagonist” value in the test with isolated NRVM [1] (NRVM 48 h, FGF2 25 ng/ml, PD173074 10 nM, AZD4547 5 nM, anti-FGFR4 10 μg/ml) is on record as “inhibited”. Besides, the “FGF23-induced hypertrophy (cross-sectional area) with receptor antagonist” value with isolated NRVM [1] (NRVM 48 h, FGF23 25 ng/ml, PD173074 10 nM, AZD4547 5 nM, anti-FGFR4 10 μg/ml) is “inhibited”. In addition, in the test with isolated NRVM [2] (48 h co-treatment), the “FGF2-mediated increases in ANP and BNP expression with inhibitor” value was “blocks”; the “FGF23-mediated increases in ANP and BNP expression with inhibitor” value is “blocks”.

B1: FGF2: recombinant mouse FGF2 (Ala11-Ser154) (R&D Systems) (protein)
chain: ALPEDGGAAFPPGHFKDPKRLYCKNGGFFLRIHPDGRVDGVREKSDPHVKLQLQAEERGVVSIKGVCANRYLAMKEDGRLLASKCVTEECFFFERLESNNYNTYRSRKYSSWYVALKRTGQYKLGSKTGPGQKAILFLPMSAKS
B1: the “cross-sectional area of isolated NRVM” value in the test with isolated NRVM [1] is given as “significantly increases”. Moreover, the “expression of ANP and BNP” value in the test with isolated NRVM [2] is reported as “significantly increased”.

B2: FGF23: recombinant mouse FGF23, 6His-tagged Tyr25-Val251 (Arg179Gln) (R&D Systems) (protein)
chain: YPDTSPLLGSNWGSLTHLYTATARTSYHLQIHRDGHVDGTPHQTIYSALMITSEDAGSVVITGAMTRRFLCMDLHGNIFGSLHFSPENCKFRQWTLENGYDVYLSQKHHYLVSLGRAKRIFQPGTNPPPFSQFLARRNEVPLLHFYTVRPRRHTQSAEDPPERDPLNVLKPRPRATPVPVSCSRELPSAEEGGPAASDPLGVLRRGRGDARGGAGGADRCRPFPRFV
modifications: left off: small tags and cut ends
Turning to B2, the “cross-sectional area of isolated NRVM” value in the test on isolated NRVM [1] was “significantly increases”. Moreover, the “expression of ANP and BNP” value with isolated NRVM [2] was “significantly increased”.
